In test [1] the target is T1, rePON1 (PON1, paraoxonase 1) (Homo sapiens, UniProt P27169).
T1 construct: purchased Thermo Corp. RP-75678
Description: Prevention of inhibition of PON1 activity by oxidized linolenic acid (TBBL substrate). Format: biochemical. The method, boiled down: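 Recombinant PON1 preincubated 30 min at room temperature with compound (30 μM) in 50 mM Tris-HCl/1 mM CaCl2, then exposed to oxidized linolenic acid for 2 h. Activity read with TBBL and DTNB at 420 nm, 37 °C, every 2 min for 1 h, expressed relative to uninhibited PON1.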

The test system of a further test is SH-SY5Y cells. Description: Cell death from MPP+ mitochondrial damage, MTT cell viability. It counts as cell-based, Human. The note with it: 1 mM MPP+ 24 h, then 0.0001-1 μM compound 24 h, FIG. 2. As to the method:
Human neuronal SH-SY5Y cells were cultured in a 1:1 DMEM/F12 medium containing 10% FBS (fetal bovine serum) at 37° C. under 5% carbon dioxide and 95% air. The cultured cells were transferred to a 96-well cell culture plate at a density of 2*10^4 cells/well and cultured for 24 hours. Thereafter, after replacement with serum-restricted medium (1:1 DMEM/F12 medium containing 0.5% FBS), the cells were cultured for 16 hours. Then, the cultured cells were treated with 1 mM MPP+ (1-methyl-4-phenylpyridinium) and cultured for 24 hours, thus inducing mitochondrial dysfunction in the cells. […]
Each of the cultures obtained in Experimental Example 3-1 was treated with 0.2 mg/ml of 3-(4,5-dimethylthiazol-2-yl)-2,5-diphenyl-tetrazolium bromide (MTT; Sigma-Aldrich) and cultured for 4 hours. The MTT formazan precipitate formed by the viable cells was dissolved in 100 μl of 0.04N hydrochloric acid/isopropanol, and the absorbance at 540 nm was measured using an ELISA microplate reader (Molecular Devices).
The absorbances of controls were measured in the same manner as the above-described method, except for using a sample to which DMSO was added (normal control) instead of MMP+ and the compound of Formula III-1 and a sample to which the compound of Formula III-1 was not added (negative control).
The cell viability percentage was calculated from the absorbance.

In another test the test system is PON2 mRNA. Description: Relative expression level of PON2 mRNA in liver of DIO mice (real-time PCR). Conditions: 100 mg/kg orally once daily for 6 weeks, 60% fat diet, FIG. 1a. Format: in vivo, C57BL/6J DIO mice. As to the method:
14-Week-old C57BL/6J DIO (Diet Induced Obesity) mice (The Jackson Laboratory, USA) were purchased. The normal control group was fed a 10% fat diet for 3 weeks, and the DIO control group was fed a 60% fat diet for 3 weeks. In addition, the Formula III-1 compound-administered group was fed a 60% fat diet for 3 weeks, and then 100 mg/kg of the compound of Formula III-1 was orally administered thereto once daily for 6 weeks.
The mice of the normal control group, the DIO control group and the Formula III-1 compound-administered group were euthanized, and the liver tissues were extracted therefrom, washed with a PBS solution containing PIC (protease inhibitor cocktail), sectioned to a size of 0.2 to 0.5 g, and stored at −196° C. until the experiment.
The following experiment was conducted using the liver tissue sections from the normal control group, the DIO control group and the Formula III-1 compound-administered group.
The relative expression level of PON2 mRNA was analyzed using real-time PCR. Specifically, trizol (Invitrogen, Carlsbad, Calif., USA) was added to the liver tissue which was then minced using a homogenizer, and total RNA was extracted therefrom. […]
(In general: In qPCR the cycle at which signal appears reflects the starting amount.)

T1 sequence (P27169 whole entry): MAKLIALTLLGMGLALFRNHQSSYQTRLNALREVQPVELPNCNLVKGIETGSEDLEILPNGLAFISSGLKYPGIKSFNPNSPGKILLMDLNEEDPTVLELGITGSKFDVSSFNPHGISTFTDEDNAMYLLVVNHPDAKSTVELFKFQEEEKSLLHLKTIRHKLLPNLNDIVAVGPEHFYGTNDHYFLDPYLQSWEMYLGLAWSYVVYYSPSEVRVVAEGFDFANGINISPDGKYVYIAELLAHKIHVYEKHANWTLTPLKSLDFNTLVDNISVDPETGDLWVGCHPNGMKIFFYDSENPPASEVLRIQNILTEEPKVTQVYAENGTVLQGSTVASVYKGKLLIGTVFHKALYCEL

`CCOc1ccc(C2COc3c(ccc4c3CCC(C)(C)O4)C2)c(O)c1` (centres unmarked) [Formula III-1, 2-(8,8-dimethyl-2,3,4,8,9,10-hexahydropyrano[2,3-f]chromen-3-yl)-5-ethoxyphenol]: the activity at 30 µM in test [1] (30 μM compound with rePON1 30 min, then oxidized linolenic acid 2 h, TBBL substrate, normal control 100, negative control 73.64) was 89%. Also, the “extent to which inhibition of rePON1 activity was prevented, compared with glabridin” value in test [1] (compound 30 μM vs glabridin 30 μM, result in words) is reported as “greater”. For the same compound, in test [1] (compound 30 μM, result in words), the “inhibition of rePON1 activity by oxidized linolenic acid” value is on record as “prevented”. The “function of mitochondria damaged by MPP+ (cell viability percentage)” value in the test on SH-SY5Y cells was “restored”. The “expression level of PON2 mRNA compared with normal control group” value in the test on PON2 mRNA is “higher”.
